In publication PMC8632988, “Inhibition of SYK and cSrc kinases can protect bone and cartilage in preclinical models of osteoarthritis and rheumatoid arthritis” (Scientific Reports, 2021):

How the values were obtained:
[1] = tested on: Sprague-Dowley rats, medial meniscal tear (MMT) model; assay: Surgically induced meniscal tear OA in rats; assay type: in vivo, rat; details: 0.1 mg/kg subcutaneously once every three days, day 21
Method: Medial meniscal tear (MMT) model was performed at Pharmenterprises, Russia according to the published procedure[31] and approved by Ethics Committee of Pharmenterprises. Male 4-month old Sprague-Dowley rats were anesthetized with Zoletil (Vibrac, France) and Xylazine (Interchemie werken "De Adelaar" BV, Netherlands) mixture. The medial collateral ligament was transected, and the medial meniscus was grasped with a hemostat and reflected proximally toward the femur. The meniscus was transected and then skin was closed with sutures. 60–90 min after surgery rats were subcutaneously injected with flexoprofen (VIC GROUP, Russia). Treatment groups (20 rats each) were intragastrically treated with MT-SYK-03 (100 and 500 mg/kg) or vehicle control (0.5% methylcellulose solution) 24 h before OA induction and then once daily for 21 day. Active control group was subcutaneously injected with zoledronic acid (0.1 mg/kg) 24 h before OA induction and then once every three days for 21 day. After 21 day animals were sacrificed; surgically operated right knee was removed and used for image analysis.

[2] = tested on: Wistar rats, MIA osteoarthritis model; assay: Monosodium iodoacetate induced osteoarthritis in rats; assay type: in vivo, rat
Method: Monosodium iodoacetate (MIA) osteoarthritis model was performed at Pharmenterprises, Russia according to the known procedure[32] and approved by Ethics Committee of Pharmenterprises. Male 10 week old Wistar rats were divided into eight groups: negative control (#1), positive control (#2) and six treatment groups (#3–8), ten rats in each group. Group #1 was left intact while rats in groups #2–8 were anesthetized on the day 0 with intraperitoneal injection of Zoletil and Xylazine mixture and given a single intra-articular injection of MIA through the infrapatellar ligament of the right knee. Rats were treated as follows: (#1, #2) 0.5% solution of methylcellulose in PBS (pH = 3) as vehicle control, (#3, #5) 100 mg/kg MT-SYK-03, (#4, #6) 500 mg/kg MT-SYK-03, (#7) 50 mg/kg nalgesin and (#8) 0.1 mg/kg zoledronic acid. Rats in groups #1–4 received treatment intragastrically QD, 25 and 1 h before the MIA injection, and then daily until the end of the study on the day 28. Rats in groups #5–6 received treatment intragastrically QD from the day 7 until the end of the study. Rats in group #7 were treated QD starting on the day 14 and until the end of the study. Finally, rats in group #8 were treated subcutaneously immediately after the MIA injection and then every third day until the study end. Disease progression was monitored by measuring mechanical hyperalgesia, mechanical allodynia and grip strength of hind paws on the days 14, 21, and 28, just before the treatment, and 1, 3, 6 h after it.

mongrel rats, AIA model = assay: Adjuvant-induced arthritis in rats; assay type: in vivo; details: for Animal death / The increase in the volume of the paws relative to the initial level: Diclofenac 8 mg/kg QD intragastric
Method: Rat adjuvant-induced arthritis (AIA) model was performed at Pharmenterprises, Russia as described previously^3 and approved by Ethics Committee of Pharmenterprises. Male 10 week old mongrel rats were divided into eleven groups: negative control (#1), positive control (#2) and nine treatment groups (#3–11), ten […] in each group. Group #1 was left intact, while subplantar injection of 0.1 mL of Complete Freund’s adjuvant (CFA, Sigma) was made on day 0 at right paws of rats in groups […]. […] Disease progression was monitored by measuring volumes of the right (involved) and left (non-involved) paws on days 0, 14, 18, 21, 25, and 28.

[3] = Zoledronic acid 0.1 mg/kg, 0–28 days once three days, 14 day, 1 hour after admin.
[4] = Zoledronic acid 0.1 mg/kg, 0–28 days once three days, 14 day, 3 hours after admin.
[5] = Zoledronic acid 0.1 mg/kg, 0–28 days once three days, 21 day, 1 hour after admin.
[6] = Zoledronic acid 0.1 mg/kg, 0–28 days once three days, 21 day, 3 hours after admin.
[7] = Zoledronic acid 0.1 mg/kg, 0–28 days once three days, 28 day, 1 hour after admin.
[8] = Zoledronic acid 0.1 mg/kg, 0–28 days once three days, 28 day, 3 hours after admin.

## O=P(O)(O)C(O)(Cn1ccnc1)P(=O)(O)O [zoledronic acid, reference compound]
[1]
  Lesion area: 25.3 ± 2.2^& %
  Lesion depth: 50.5 ± 7.1%
[2]; [3]
  hind paws grip strength: 60.4 ± 10.4 & % from the initial one
  mechanical allodynia pain threshold: 100.6±8 & % from the initial one
  mechanical hyperalgesia: 68.1 ± 6.3 & % from the initial one
[2]; [4]
  hind paws grip strength: 75.4 ± 7.7 & % from the initial one
  mechanical allodynia pain threshold: 101.3±12.3 & % from the initial one
  mechanical hyperalgesia: 68.3 ± 3.5 & % from the initial one
[2]; [5]
  hind paws grip strength: 96 ± 6.8 % from the initial one
  mechanical allodynia pain threshold: 108.2±7.9 & % from the initial one
  mechanical hyperalgesia: 85.6 ± 5.6 % from the initial one
[2]; [6]
  hind paws grip strength: 84.3 ± 7.5 % from the initial one
  mechanical allodynia pain threshold: 106.8±6.5 & % from the initial one
  mechanical hyperalgesia: 83.4 ± 5.2 % from the initial one
[2]; [7]
  hind paws grip strength: 92.8 ± 7.6 % from the initial one
  mechanical allodynia pain threshold: 112.4±8.6 & % from the initial one
  mechanical hyperalgesia: 81.8 ± 3.7 & % from the initial one
[2]; [8]
  hind paws grip strength: 93.9 ± 15.5 % from the initial one
  mechanical allodynia pain threshold: 126.6±15.4 & % from the initial one
  mechanical hyperalgesia: 84.2 ± 7.4 % from the initial one
[2]; rat MIA, days 14, 21, 28
  hind paws grip strength: stable statistically significant improvements, but only on day 28
[2]; rat MIA, reference drugs
  Mechanical hyperalgesia pain threshold: positive effects, but they were statistically significant only on days 21 and 28
  mechanical allodynia pain threshold: increased the pain threshold

## O=C(O)Cc1ccccc1Nc1c(Cl)cccc1Cl [diclofenac, reference compound]
Mongrel rats, AIA model; 14 days
  Animal death: 0%
Mongrel rats, AIA model; 18 days
  Animal death: 0%
Mongrel rats, AIA model; 21 days
  Animal death: 10%
Mongrel rats, AIA model; 25 days
  Animal death: 20%
Mongrel rats, AIA model; 28 days
  Animal death: 20%
Mongrel rats, AIA model; non-involved paws, 14 days
  The increase in the volume of the paws relative to the initial level: 14.28±0.98& %
Mongrel rats, AIA model; non-involved paws, 18 days
  The increase in the volume of the paws relative to the initial level: 22.01±2.42& %
Mongrel rats, AIA model; non-involved paws, 21 days
  The increase in the volume of the paws relative to the initial level: 22.85±2.82& %
Mongrel rats, AIA model; non-involved paws, 25 days
  The increase in the volume of the paws relative to the initial level: 19.99±2.76& %
Mongrel rats, AIA model; non-involved paws, 28 days
  The increase in the volume of the paws relative to the initial level: 20.8±3.06& %
Mongrel rats, AIA model; rat AIA, diclofenac, day 28
  Volume of non-involved paws: no statistically significant effect
Mongrel rats, AIA model; rat AIA, sodium diclofenac
  Rats died: 20%
Mongrel rats, AIA model; treated paws, 14 days
  The increase in the volume of the paws relative to the initial level: 85.1 ± 8.01 & n = 10%
Mongrel rats, AIA model; treated paws, 18 days
  The increase in the volume of the paws relative to the initial level: 90.16 ± 9.34 & n = 10%
Mongrel rats, AIA model; treated paws, 21 days
  The increase in the volume of the paws relative to the initial level: 89.64 ± 9.99 & n = 9%
Mongrel rats, AIA model; treated paws, 25 days
  The increase in the volume of the paws relative to the initial level: 88.04 ± 12.52 &. n = 8%
Mongrel rats, AIA model; treated paws, 28 days
  The increase in the volume of the paws relative to the initial level: 92.37 ± 13.78 & n=8%
